This note sets out measurements from patent US10780092B2, “Fused pyrazine derivatives useful as soluble guanylate cyclase stimulators” (Merck Sharp & Dohme Corp., priority 2016, dated 2020).

Experiment [1] deals with human recombinant sGC enzyme (Homo sapiens (Human), UniProt Q02108+Q02153). Kind of experiment: SEC competition binding assay with [3H] Compound B radioligand. The settings on record: displacement of 1.6 nM [3H] Compound B, 24 h at 37° C. On the procedure: The binding potencies of sGC compounds to the human recombinant sGC enzyme were determined in a Size Exclusion Chromatography (SEC) competition binding assay using [^3H] Compound B as the radioligand. [^3H] Compound B was prepared using a standardardized tritium exchange procedure. The parent (non-labeled) molecule was first iodinated then a Pd-catalyzed iodine to tritium exchange provided the labeled compound.
Method: The binding buffer was composed of 50 mM triethanolamine pH 7.4, 3 mM MgCl2, 0.025% BSA, 2 mM dithiothreitol (DTT), 300 μM DETA/NO and 400 μM GTP. Assays were conducted in 96-well plates in a total volume of 200 μL. Recombinant human sGC protein (40 ng) was incubated with 1.6 nM [^3H] Compound B for 24 h at 37° C. in the presence and absence of various concentrations of sGC testing compounds delivered as DMSO solutions to give a total of 1% organic solvent content. Non-specific binding was defined by competition with 1 μM of Compound B. After the incubation period, the binding mixtures were loaded onto the gel-filtration plate (ThermoFischer Cat. No. 89808) pre-equilibrated with binding buffer and spun at 1000×g for 3 min at 4° C. on a Bench top centrifuge. The collected eluates in White Frame Clear Well Isoplates (Perkin Elmer Cat #6005040) received 100 μl of UltimaGold scintillation cocktail. The sealed plates were shaken vigorously and span, and counted after 6 hs with a Wallac Microbeta TriLux 1450 LSC & Luminescence Counter (Perkin Elmer). Data from competition experiments were analyzed to determine Ki values using one site—fit Ki equation.

In another experiment the target is sGC α1/β1 heterodimer (Homo sapiens (Human), UniProt Q02108+Q02153). Kind of experiment: Cell-based sGC functional assay (CASA assay), cGMP by HTRF. The settings on record: CHO-K1/sGC cells; for Emax: CHO-K1, cGMP production as percentage of maximum of compound A (set to 100%), read-out: % Activation; for EC50: inflection point of cGMP production, 4P fit, read-out: IP; for % Activation: cGMP production as percentage of maximum of compound A (set to 100%). An excerpt: Cell-Based sGC Functional Assay (Cyclic GMP Assay for sGC Activator: CASA Assay)
Soluble guanylate cyclase (sGC) is a heme-containing enzyme that converts GTP to secondary messenger cGMP. Increases in cGMP levels affect several physiological processes including vasorelaxation through multiple downstream pathways. […] Heme-dependent activators (HDAs) preferentially target sGC containing a ferrous heme group. To determine the effect of sGC activators on enzyme activity, the CASA assay was developed to monitor the generation of cGMP in a cell line that stably expresses the heterodimeric sGC protein.
A CHO-K1 cell line stably expressing the sGC α1/β1 heterodimer was generated using a standard transfection protocol. The cDNA's encoding human sGC α1 and β1 were cloned in pIRES hyg and pIRES neo respectively using standard molecular biology techniques. The plasmids pIRES hyg and pIRES neo plasmids were obtained from Clontech. CHO-K1 cells were transfected with plasmids pIREShyg-hsGCα1 and pIRESneo-hsGCβ1 simultaneously using FUGENE reagent. Clones that stably express both subunits were selected with hygromycin and neomycin for ˜2 weeks. The clone chosen for the assay was designated CHO-K1/sGC. CHO-K1/sGC cells were maintained in F-K12 medium containing 10% heat-inactivated Fetal Bovine Serum (FBS), 100 μg/mL penicillin/streptomycin, 0.5 mg/mL hygromycin and 0.25 mg/mL G418. The cells were then cryopreserved in liquid nitrogen. On the day of the assay, the cells were thawed and resuspended in EBSS Assay Buffer (Sigma, E3024) supplemented with 5 mM MgCl2, 10 mM HEPES (4-(2-hydroxyethyl)piperazine-1-ethanesulfonic acid) and 0.05% BSA (bovine serum albumin) and cell density was then adjusted to 2.25×10^5/mL with EAB. IBMX (3-isobutyl-1-methylxanthin, 0.5 mM) was added to inhibit degradation of cGMP. Compounds were diluted from DMSO stock solutions and added to the assay at a final DMSO concentration of 2.5%. Cells were pre-incubated in the presence and absence of 1 μM of Diethylenetriamine/nitric oxide adduct (DETA-NO; Sigma, 17018) for 30 min at 25° C. Compounds were subsequently added and incubated for 1 hr at 37° C. At the end of the incubation period, the reaction was terminated and the cells were lysed with the detection reagents from Cisbio Kits. The level of intracellular cGMP was determined using an HTRF-based assay kit (CisBio, 62GM2PEC), which detects the displacement of a fluorescence labeled cGMP from its specific antibody. The cGMP produced by test compounds was directly compared to the maximum cGMP production (this value was set to equal 100% activation) of the published sGC compound A (Example 1 in WO 2010/065275, published Jun. 10, 2010).
The test compounds' activities were then expressed as a percentage of compound A, the standard in every experiment. This percent activation was calculated either in the presence or absence of DETA-NO which was then plotted. Inflection points (IP) and maximum fold induction was derived using Abase analysis software for 4P fit.

Each structure is given as a SMILES string.

As usually defined, the Ki is the equilibrium dissociation constant of an inhibitor or competing ligand from its target. For the compound `CC1(c2ccc(F)c(O)c2)C(=O)Nc2nc(-c3cn4ncnc4c(CCC(F)(F)C(F)(F)F)n3)nc(N)c21` (racemic) [Example 114-B, 4-Amino-5-(4-fluoro-3-hydroxyphenyl)-5-methyl-2-(8-(3,3,4,4,4-pentafluorobutyl)-[1,2,4]-triazolo[1,5-a]pyrazin-6-yl)-5,7-dihydro-6H-pyrrolo(2,3-d]pyrimidin-6-one], in experiment [1], the inhibition constant Ki was 4.95 nM. Moreover, at sGC α1/β1 heterodimer, the Emax amounted to 112% and the EC50 was 137 nM.

On to `CC1(c2ccc(O)c(F)c2)C(=O)Nc2nc(-c3cn4ncnc4c(CCC(F)(F)C(F)(F)F)n3)nc(N)c21` (racemic) [Example 116-B, 4-Amino-5-(3-fluoro-4-hydroxyphenyl)-5-methyl-2-(8-(3,3,4,4,4-pentafluorobutyl)-[1,2,4]triazolo[1,5-a]pyrazin-6-yl)-5,7-dihydro-6H-pyrrolo-[2,3-d]pyrimidin-6-one], for which the Ki in experiment [1] came to 6.37 nM. Further, at sGC α1/β1 heterodimer, the Emax turned out to be 137% and the EC50 turned out to be 95 nM.

`CC1(c2cc(Cl)c(O)cn2)C(=O)Nc2nc(-c3cn4ccnc4c(Cc4ccccc4F)n3)nc(N)c21` (single isomer, unassigned) [Example 53-B, 4-Amino-5-(4-chloro-5-hydroxypyridin-2-yl)-2-{8-[(2-fluorophenyl)methyl]imidazo[1,2-a]pyrazin-6-yl}-5-methyl-5,7-dihydro-6H-pyrrolo[2,3-d]pyrimidin-6-one]: the inhibition constant (Ki) in experiment [1] came to 1.08 nM. On sGC α1/β1 heterodimer, the “% Activation” value was 144% and the EC50 is 771 nM.

On to `CC1(c2cc(Cl)c(O)cn2)C(=O)Nc2nc(-c3cn4ccnc4c(Cc4ccccc4F)n3)nc(N)c21` (single isomer, unassigned) [Example 104-B, 4-Amino-5-(4-chloro-5-hydroxypyridin-2-yl)-2-{8-[(2-fluorophenyl)methyl]imidazo[1,2-a]pyrazin-6-yl}-5-methyl-5,7-dihydro-6H-pyrrolo[2,3-d]pyrimidin-6-one], for which the Ki in experiment [1] came out at 1.1 nM. On sGC α1/β1 heterodimer, the Emax is 144% and the EC50 turned out to be 813 nM.

As for `CC1CCC(Cc2nc(-c3nc(N)c4c(n3)NC(=O)C4(C)c3ccc(O)c(Cl)c3)cn3ccnc23)CC1` (single isomer, unassigned) [Example 120-BA, 4-Amino-5-(3-chloro-4-hydroxyphenyl)-5-methyl-2-{8-[(4-methyl-cyclohexyl)methyl]-imidazo[1,2-a]pyrazin-6-yl}-5,7-dihydro-6H-pyrrolo[2,3-d]pyrimidin-6-one], the Ki in experiment [1] worked out at 10.9 nM. On sGC α1/β1 heterodimer, the Emax was 133% and the EC50 is 85 nM.

As to `CC1CCC(Cc2nc(-c3nc(N)c4c(n3)NC(=O)C4(C)c3ccc(O)c(Cl)c3)cn3ccnc23)CC1` (single isomer, unassigned) [Example 120-BB, 4-Amino-5-(3-chloro-4-hydroxyphenyl)-5-methyl-2-{8-[(4-methylcyclo-hexyl)methyl]imidazo-[1,2-a]pyrazin-6-yl}-5,7-dihydro-6H-pyrrolo-[2,3-d]pyrimidin-6-one], the Ki in experiment [1] turned out to be 3.79 nM. In addition, at sGC α1/β1 heterodimer, the “% Activation” value is reported as 121% and the EC50 was found to be 39 nM.

On to `CC1(c2ccc(Cl)c(O)c2)C(=O)Nc2nc(-c3cn4ccnc4c(Cc4ccc(F)cc4)n3)nc(NCC(O)C(F)(F)F)c21` (single isomer, unassigned) [Example 132-AA, 5-(4-Chloro-3-hydroxy-phenyl)-2-{8-[(4-fluoro-phenyl)methyl]imidazo-[1,2-a]pyrazin-6-yl}-5-methyl-4-[(3,3,3-trifluoro-2-hydroxy-propyl)amino]-5,7-dihydro-6H-pyrrolo-[2,3-d]-pyrimidin-6-one], for which the Ki in experiment [1] worked out at 1.21 nM. Moreover, at sGC α1/β1 heterodimer, the Emax was found to be 99% and the EC50 was 746 nM.

`CC1(c2ccc(Cl)c(O)c2)C(=O)Nc2nc(-c3cn4ccnc4c(Cc4ccc(F)cc4)n3)nc(NCC(O)C(F)(F)F)c21` (single isomer, unassigned) [Example 132-AB, 5-(4-Chloro-3-hydroxy-phenyl)-2-{8-[(4-fluoro-phenyl)methyl]imidazo-[1,2-a]pyrazin-6-yl}-5-methyl-4-[(3,3,3-trifluoro-2-hydroxypropyl)amino]-5,7-dihydro-6H-pyrrolo-[2,3-d]pyrimidin-6-one]: the Ki in experiment [1] stood at 1.46 nM. On sGC α1/β1 heterodimer, the “% Activation” value stood at 95% and the EC50 was found to be 736 nM.

As for `CC1(c2ccc(Cl)c(O)c2)C(=O)Nc2nc(-c3cn4ncnc4c(CCC(F)(F)C(F)(F)F)n3)nc(NCC(O)C(F)(F)F)c21` (single isomer, unassigned) [Example 133-AA, 5-(4-Chloro-3-hydroxy-phenyl)-5-methyl-2-(8-(3,3,4,4,4-pentafluoro-butyl)-[1,2,4]triazolo-[1,5-a]pyrazin-6-yl)-4-[(3,3,3-trifluoro-2-hydroxypropyl)amino]-5,7-dihydro-6H-pyrrolo-[2,3-d]pyrimidin-6-one], in experiment [1], the inhibition constant Ki turned out to be 2.34 nM. For the same compound, at sGC α1/β1 heterodimer, the Emax is 38% and the EC50 stood at 1290 nM.

In the case of `CC1(c2ccc(Cl)c(O)c2)C(=O)Nc2nc(-c3cn4ncnc4c(CCC(F)(F)C(F)(F)F)n3)nc(NCC(O)C(F)(F)F)c21` (single isomer, unassigned) [Example 133-AB, 5-(4-Chloro-3-hydroxy-phenyl)-5-methyl-2-(8-(3,3,4,4,4-pentafluoro-butyl)-[1,2,4]triazolo-[1,5-a]pyrazin-6-yl)-4-[(3,3,3-trifluoro-2-hydroxypropyl)amino]-5,7-dihydro-6H-pyrrolo-[2,3-d]pyrimidin-6-one], the Ki in experiment [1] amounted to 9.24 nM. Further, at sGC α1/β1 heterodimer, the “% Activation” value is 48% and the EC50 was determined as 3380 nM.

Turning to `CC1(c2cc(O)c(Cl)c(F)c2)C(=O)Nc2nc(-c3cn4ccnc4c(Cc4cccc(F)c4)n3)nc(N)c21` (stereo not drawn) [Example 5-B, 4-Amino-5-(4-chloro-3-fluoro-5-hydroxyphenyl)-2-{8-[(3-fluorophenyl)methyl]imidazo[1,2-a]pyrazin-6-yl}-5-methyl-5,7-dihydro-6H-pyrrolo[2,3-d]pyrimidin-6-one], the inhibition constant Ki in experiment [1] was 0.091 nM. At sGC α1/β1 heterodimer, the Emax was found to be 113% and the EC50 amounted to 188 nM.

Turning to `CC1(c2cc(O)c(Cl)c(F)c2)C(=O)Nc2nc(-c3cn4ccnc4c(Cc4cc(F)ccc4F)n3)nc(N)c21` (stereo not drawn) [Example 6-B, 4-Amino-5-(4-chloro-3-fluoro-5-hydroxyphenyl)-2-{8-[(2,5-difluorophenyl)methyl]imidazo[1,2-a]pyrazin-6-yl}-5-methyl-5,7-dihydro-6H-pyrrolo[2,3-d]pyrimidin-6-one], the inhibition constant (Ki) in experiment [1] was 0.094 nM. Moreover, on sGC α1/β1 heterodimer, the Emax was 113% and the EC50 is 94 nM.
